Experiments:
Test in all cases: relative viability (nuclei count vs DMSO), 5 days (fraction); higher = more cells survive
NCI-H647 = system: NCI-H647
Outline: (§1)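 Values are medians from duplicate plates. Each reflects relative viability, defined as the nuclei count of treated wells over that of vehicle wells. Lung cancer cell lines in 1536-well plates were pin-tool dosed one day after seeding with one drug alone or with a fixed anchor-drug dose plus five library-drug doses (not always all listed) in √10 steps, then fixed, stained and imaged at 4× after 5 days.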

NCI-H2023 = system: NCI-H2023
Outline: as §1

EPLC-272H = system: EPLC-272H
Outline: as §1

LCLC-97TM1 = system: LCLC-97TM1
Outline: as §1

EMC-BAC-2 = system: EMC-BAC-2
Outline: as §1

NCI-H2347 = system: NCI-H2347
Outline: as §1

NCI-H1993 = system: NCI-H1993
Outline: as §1

NCI-H322M = system: NCI-H322M
Outline: as §1

NCI-H2126 = system: NCI-H2126
Outline: as §1

NCI-H727 = system: NCI-H727
Outline: as §1

NCI-H2085 = system: NCI-H2085
Outline: as §1

SK-LU-1 = system: SK-LU-1
Outline: as §1

NCI-H1915 = system: NCI-H1915
Outline: as §1

H3255 = system: H3255
Outline: as §1

SW 1573 = system: SW 1573
Outline: as §1

PC-14 = system: PC-14
Outline: as §1

NCI-H1734 = system: NCI-H1734
Outline: as §1

HOP-62 = system: HOP-62
Outline: as §1

LXF-289 = system: LXF-289
Outline: as §1

NCI-H2009 = system: NCI-H2009
Outline: as §1

`CCN(CC)CCCCNc1ncc2cc(-c3cc(OC)cc(OC)c3)c(NC(=O)NC(C)(C)C)nc2n1` + CC1(C)CCC(c2ccc(Cl)cc2)=C(CN2CCN(c3ccc(C(=O)NS(=O)(=O)c4ccc(N[C@H](CCN5CCOCC5)CSc5ccccc5)c(S(=O)(=O)C(F)(F)F)c4)cc3)CC2)C1 [Navitoclax] (partner 0.5 µM) was tested, and the relative viability (NCI-H647; first compound 0.01 µM) was 1.12, the relative viability (NCI-H647; first compound 0.03162 µM) was 1.14 and the relative viability (NCI-H647; first compound 0.1 µM) was 1.41. For the same compound, the relative viability (NCI-H647; first compound 0.3162 µM) was 1.21, the relative viability (NCI-H647; first compound 1 µM) was 0.929 and the relative viability (NCI-H2023; first compound 0.01 µM) was 1.04. For the same compound, the relative viability (NCI-H2023; first compound 0.03162 µM) was 0.997, the relative viability (NCI-H2023; first compound 0.1 µM) was 1 and the relative viability (NCI-H2023; first compound 0.3162 µM) was 1.04. The relative viability (NCI-H2023; first compound 1 µM) was 0.823, the relative viability (EPLC-272H; first compound 0.01 µM) was 1.14 and the relative viability (EPLC-272H; first compound 0.1 µM) was 1.07. It also gave a relative viability (EPLC-272H; first compound 0.3162 µM) of 1.29, a relative viability (EPLC-272H; first compound 1 µM) of 0.995 and a relative viability (LCLC-97TM1; first compound 0.03162 µM) of 0.356. The relative viability (LCLC-97TM1; first compound 0.1 µM) was 0.503, the relative viability (LCLC-97TM1; first compound 0.3162 µM) was 0.435 and the relative viability (LCLC-97TM1; first compound 1 µM) was 0.4. For the same compound, the relative viability (EMC-BAC-2; first compound 0.01 µM) was 1.38, the relative viability (EMC-BAC-2; first compound 0.03162 µM) was 1.24 and the relative viability (EMC-BAC-2; first compound 0.1 µM) was 1.24. For the same compound, the relative viability (EMC-BAC-2; first compound 0.3162 µM) was 1.28, the relative viability (EMC-BAC-2; first compound 1 µM) was 0.899 and the relative viability (NCI-H2347; first compound 0.01 µM) was 0.817. It also gave a relative viability (NCI-H2347; first compound 0.03162 µM) of 0.823, a relative viability (NCI-H2347; first compound 0.1 µM) of 0.762 and a relative viability (NCI-H2347; first compound 0.3162 µM) of 0.833. The relative viability (NCI-H2347; first compound 1 µM) was 0.676, the relative viability (NCI-H1993; first compound 0.01 µM) was 0.904 and the relative viability (NCI-H1993; first compound 0.03162 µM) was 0.954. It also gave a relative viability (NCI-H1993; first compound 0.1 µM) of 0.963, a relative viability (NCI-H1993; first compound 0.3162 µM) of 1.07 and a relative viability (NCI-H1993; first compound 1 µM) of 0.895. The relative viability (NCI-H322M; first compound 0.01 µM) was 1.26, the relative viability (NCI-H322M; first compound 0.03162 µM) was 1.29 and the relative viability (NCI-H322M; first compound 0.1 µM) was 1.23. For the same compound, the relative viability (NCI-H322M; first compound 0.3162 µM) was 1.22, the relative viability (NCI-H322M; first compound 1 µM) was 1.2 and the relative viability (NCI-H2126; first compound 0.01 µM) was 0.904. The relative viability (NCI-H2126; first compound 0.03162 µM) was 0.845, the relative viability (NCI-H2126; first compound 0.1 µM) was 0.916 and the relative viability (NCI-H2126; first compound 0.3162 µM) was 0.927. For the same compound, the relative viability (NCI-H2126; first compound 1 µM) was 0.828, the relative viability (NCI-H727; first compound 0.01 µM) was 0.443 and the relative viability (NCI-H727; first compound 0.03162 µM) was 0.336. For the same compound, the relative viability (NCI-H727; first compound 0.1 µM) was 0.428, the relative viability (NCI-H727; first compound 0.3162 µM) was 0.454 and the relative viability (NCI-H727; first compound 1 µM) was 0.387. It also gave a relative viability (NCI-H2085; first compound 0.01 µM) of 1.08, a relative viability (NCI-H2085; first compound 0.03162 µM) of 1.22 and a relative viability (NCI-H2085; first compound 0.1 µM) of 1.33. It also gave a relative viability (NCI-H2085; first compound 0.3162 µM) of 1.22, a relative viability (NCI-H2085; first compound 1 µM) of 1.06 and a relative viability (SK-LU-1; first compound 0.01 µM) of 1.02. It also gave a relative viability (SK-LU-1; first compound 0.03162 µM) of 0.894, a relative viability (SK-LU-1; first compound 0.1 µM) of 1.08 and a relative viability (SK-LU-1; first compound 0.3162 µM) of 1.18. The relative viability (SK-LU-1; first compound 1 µM) was 0.639, the relative viability (NCI-H1915; first compound 0.01 µM) was 0.826 and the relative viability (NCI-H1915; first compound 0.03162 µM) was 0.795. It also gave a relative viability (NCI-H1915; first compound 0.1 µM) of 0.838, a relative viability (NCI-H1915; first compound 0.3162 µM) of 0.749 and a relative viability (NCI-H1915; first compound 1 µM) of 0.805. The relative viability (H3255; first compound 0.01 µM) was 0.496, the relative viability (H3255; first compound 0.03162 µM) was 0.413 and the relative viability (H3255; first compound 0.1 µM) was 0.65. It also gave a relative viability (H3255; first compound 0.3162 µM) of 0.729, a relative viability (H3255; first compound 1 µM) of 0.502 and a relative viability (SW 1573; first compound 0.01 µM) of 0.958. It also gave a relative viability (SW 1573; first compound 0.03162 µM) of 0.963, a relative viability (SW 1573; first compound 0.1 µM) of 1.31 and a relative viability (SW 1573; first compound 0.3162 µM) of 1.25. For the same compound, the relative viability (SW 1573; first compound 1 µM) was 1.01, the relative viability (PC-14; first compound 0.01 µM) was 1.11 and the relative viability (PC-14; first compound 0.03162 µM) was 1.06. It also gave a relative viability (PC-14; first compound 0.1 µM) of 1.15, a relative viability (PC-14; first compound 0.3162 µM) of 1.01 and a relative viability (PC-14; first compound 1 µM) of 0.985. For the same compound, the relative viability (NCI-H1734; first compound 0.01 µM) was 0.971, the relative viability (NCI-H1734; first compound 0.03162 µM) was 0.863 and the relative viability (NCI-H1734; first compound 0.1 µM) was 0.824. For the same compound, the relative viability (NCI-H1734; first compound 0.3162 µM) was 1.03, the relative viability (NCI-H1734; first compound 1 µM) was 0.761 and the relative viability (HOP-62; first compound 0.01 µM) was 1.15. It also gave a relative viability (HOP-62; first compound 0.03162 µM) of 1.13, a relative viability (HOP-62; first compound 0.1 µM) of 1.29 and a relative viability (HOP-62; first compound 0.3162 µM) of 0.974. For the same compound, the relative viability (HOP-62; first compound 1 µM) was 1.06, the relative viability (LXF-289; first compound 0.01 µM) was 1.02 and the relative viability (LXF-289; first compound 0.03162 µM) was 0.968. The relative viability (LXF-289; first compound 0.1 µM) was 1.07, the relative viability (LXF-289; first compound 0.3162 µM) was 0.939 and the relative viability (LXF-289; first compound 1 µM) was 0.834. It also gave a relative viability (NCI-H2009; first compound 0.01 µM) of 1.25, a relative viability (NCI-H2009; first compound 0.03162 µM) of 1.14 and a relative viability (NCI-H2009; first compound 0.1 µM) of 1.21. For the same compound, the relative viability (NCI-H2009; first compound 0.3162 µM) was 1.31 and the relative viability (NCI-H2009; first compound 1 µM) was 1.11.
